# Source: US20230248025A1 (priority 2020, published 2023)
# “And” between values parts separate entries of the source, which are not always exact repeats. Equal entries are not always repeated.
# Columns and labels:
# [1] = Color and stability study in emulsified cooked sausage (visual, L*a*b*, hue angle, delta a*, delta E); format: physicochemical
# Listeria monocytogenes [2] = details: emulsified sausage; 4° C. then 8° C.
# Listeria monocytogenes [3] = assay: Challenge test Listeria in fresh ground sausage; format: cell-based
# total flora = assay: Total plate count in cooked emulsified sausage during storage; format: cell-based
# lactic flora = assay: Lactic flora in cooked emulsified sausage during storage; format: cell-based
# lactic acid bacteria = assay: Endogenous lactic acid bacteria in cooked emulsified sausage model; format: cell-based
# toxins of C. botulinum = system: toxins of C. botulinum; design: species or system Clostridium botulinum; details: in vivo
# [4] = pH of emulsified cooked sausage modalities before and after cooking; format: physicochemical
# [5] = system: Clostridium botulinum (group II type B); format: cell-based
# [6] = cooked emulsified sausage, d0 to d21
# [7] = emulsified sausage, modalities 3-6 also contain 3000 ppm Natstabil M2 blend1
compound,measurement,setting,value
O=NO [Nitrite],sausage color after 21 days of storage (visual),[1]; 10 days at 4° C. and 11 days at 8° C.,slightly degraded (pale orange shade)
same,a* value over time,[1]; [6],"a* values more important than control, stable over time"
same,b* value over time,[1]; [6],slight increase of b* value at d21
same,meat color before cooking (visual),[1]; [7],grey
same,sausage color after cooking (visual),[1]; [7],light pink
same,Listeria growth during shelf-life,Listeria monocytogenes [2],cannot limit the growth
same,Δ log cfu/g versus untreated control,Listeria monocytogenes [3]; d4,< −0.5 log cfu/g
same,Δ log cfu/g versus untreated control,Listeria monocytogenes [3]; d8,< −0.5 log cfu/g
same,total flora growth,total flora,normal growth
same,lactic flora growth,lactic flora,normal growth
same,Lactic acid bacteria Day 40,"lactic acid bacteria; 14 days at 4° C., 2 h at 20° C. and 26 days at 8° C.",<5 CFU/g
same,Lactic acid bacteria D0 after cooking,lactic acid bacteria; inoculated sausage model,<5 CFU/g
same,"Detection of toxins of C. botulinum, positive samples of 5, Day 21",toxins of C. botulinum,0/5
same,"Detection of toxins of C. botulinum, positive samples of 5, Day 40",toxins of C. botulinum,0/5
same,production of C. botulinum toxin,toxins of C. botulinum,inhibit the production of toxin
same,pH after cooking d0,[4],6.48
same,pH before cooking,[4],6.31
same,pH d7,[4],6.43
same,pH d14,[4],6.47
same,pH d21,[4],6.47
same,C. botulinum (spores + vegetative cells) D0 before cooking,[5],250 CFU/g and 450 CFU/g and 400 CFU/g
same,C. botulinum (spores + vegetative cells) Day 30,[5],<5 CFU/g and 5 CFU/g
same,C. botulinum (spores + vegetative cells) Day 40,[5],5 CFU/g and <5 CFU/g
same,C. botulinum (spores only) D0 after cooking,[5],<5 CFU/g and 5 CFU/g
same,C. botulinum (spores only) Day 21,[5],<5 CFU/g
same,C. botulinum (spores only) Day 30,[5],<5 CFU/g
same,C. botulinum (spores only) Day 40,[5],<5 CFU/g
lactate,Δ log cfu/g versus untreated control,Listeria monocytogenes [3]; d8,−0.9 log cfu/g
same,total flora growth,total flora,normal growth
same,lactic flora growth,lactic flora,normal growth
